According to patent US11766434B2, “Pyrimidinone derivatives as CDC7 inhibitors” (Cancer Research Technology Limited, priority 2016, dated 2023):

Molecular target: Cdc7/ASK (Homo sapiens, UniProt O00311)
Test: Cdc7 biochemical assay Method 1: 384 well ELISA, MCM2 whole protein substrate, Phospho MCM2 (S53) antibody
Design: purchased
Details: ATP 2 μM, 90 minutes, read-out: Biochemical method 1 (pIC50) (converted)
Procedure: This protocol describes a method for assaying Cdc7/ASK for activity. The assay is a 384 well ELISA assay, utilising a whole protein substrate (MCM2) and an antibody against Phospho MCM2 (S53). This site is thought to be specific to Cdc7/ASK phosphorylation and the assay has been validated using knockout mutants.
• TBS: 25 mM Tris pH 7.2, 150 mM NaCl. (Dilute 10× stock by 1:10). • Wash Buffer: TBS+0.05% Tween 20. (Add 100 mL 1 M Tris pH 7.2, 120 mL 5 M NaCl and 2 mL 100% Tween 20 per 4 L). • Kinase Reaction Buffer: 50 mM Tris-HCl pH 8.5, 10 mM MgCl2, 1 mM DTT. (Dilute 10× stock by 1:10 and add 100 μL 1M DTT per 100 mL prior to assay). • Diethanolamine Buffer: 1 M diethanolamine pH 9.8, 0.5 mM MgCl2. • Stop Solution: 1 M NaOH. • MCM2 was expressed and purified in-house and used in the assay at a final assay concentration of 436 ng/well. • Cdc7/ASK is purchased from commercial suppliers and used in the assay at a final assay concentration of 37.97 ng/well or 20.63 nM. • ATP used as a final assay concentration of 2 μM. • Primary Antibody: Rabbit anti-Phospho MCM2 (S53 Antibody (BL3353)), is purchased from commercial suppliers at 0.2 mg/mL and used at a final assay concentration by diluting 1:800 in TBS. • Secondary Antibody: Anti-Rabbit/AP Antibody is supplied is purchased from commercial suppliers at 1 mg/mL and used at a final assay concentration by diluting 1:2000 in TBS. • Development Reagent: Dissolve one 20 mg PNPP tablet (Sigma, product N2765, 20 mg per tablet) per 20 mL diethanolamine Buffer (or one 5 mg PNPP tablet per 5 mL diethanolamine buffer). Cover in foil and leave shaking on a roller shaker at room temperature for up to an hour to dissolve. Methods • 1. Add 20 μL 1× working stock of Substrate (MCM2) in TBS to all wells of a clear, 384 well, Nickel-chelate microplate to give a final concentration of 250 ng/well. Incubate at room temperature for at least 1 hour. Plates can be pre-coated for 1 hour and stored at 4° C. for up to 8 days. • 2. Wash with TBS+0.05% Tween 20 (80 μL x 3). • 3. Add 2 μL 10× test compounds, including the positive control, in 40% DMSO/water to ‘test’ wells. Add 2 μL 40% DMSO/water to ‘control’ and ‘blank’ wells. The final DMSO concentration will be 4%. • 4. Add 13 μL CDCl7/ASK Kinase (1.5× stock) in Kinase Reaction Buffer to ‘test’ and ‘control’ wells to give a final concentration of […]. Add 13 μL Kinase Reaction Buffer to ‘blank’ wells. • 5. Add 5 μL ATP (4× stock) in Kinase Reaction Buffer to all wells to give a final concentration of 2 μM. • 6. Incubate at room temperature for 90 minutes. • 7. Wash with TBS+0.05% Tween 20 (80 μL x 3). • 8. Add 20 μL 1× working solution of Primary Antibody in TBS to all wells. Incubate at room temperature for 30 minutes. • 9. Wash with TBS+0.05% Tween 20 (80 μL x 3). • 10. Add 20 μL 1× working solution of Secondary Antibody in TBS to all wells. Incubate at room temperature for 30 minutes. • 11. Wash with TBS+0.05% Tween 20 (80 μL x 3). • 12. Add 20 μL 1× Development Reagent to all wells. • 13. Incubate at room temperature for 2 hours. Stop the reaction by adding 20 μL Stop Solution to all wells and record Absorbance on a Pherastar plate reader.
Percentage inhibition values were calculated from absorbance values, using the no compound (DMSO) and no enzyme control values as 0% and 100% inhibition, respectively. IC50 determination was performed with ExcelFit software (IDBS) using curve fit 205. Z′ factors were determined for each plate tested and were all above 0.5.

Cdc7/ASK, sequence (O00311 whole entry): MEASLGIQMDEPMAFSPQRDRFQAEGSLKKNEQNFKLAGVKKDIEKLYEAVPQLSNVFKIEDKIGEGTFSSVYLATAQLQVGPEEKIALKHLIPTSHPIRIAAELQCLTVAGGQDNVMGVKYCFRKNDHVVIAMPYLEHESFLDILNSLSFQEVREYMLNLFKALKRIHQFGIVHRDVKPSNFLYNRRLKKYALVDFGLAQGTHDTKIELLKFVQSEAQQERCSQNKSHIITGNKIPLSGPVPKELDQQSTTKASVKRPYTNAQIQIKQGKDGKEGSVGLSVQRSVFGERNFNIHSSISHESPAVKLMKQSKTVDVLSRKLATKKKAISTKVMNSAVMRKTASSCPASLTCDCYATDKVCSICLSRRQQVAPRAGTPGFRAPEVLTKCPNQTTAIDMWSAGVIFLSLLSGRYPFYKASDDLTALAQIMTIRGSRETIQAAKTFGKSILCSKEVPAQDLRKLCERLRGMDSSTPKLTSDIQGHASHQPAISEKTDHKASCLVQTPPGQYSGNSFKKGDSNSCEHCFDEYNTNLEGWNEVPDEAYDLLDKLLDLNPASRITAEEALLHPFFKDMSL
Cdc7/ASK, sequence (Q9UBU7 whole entry partner): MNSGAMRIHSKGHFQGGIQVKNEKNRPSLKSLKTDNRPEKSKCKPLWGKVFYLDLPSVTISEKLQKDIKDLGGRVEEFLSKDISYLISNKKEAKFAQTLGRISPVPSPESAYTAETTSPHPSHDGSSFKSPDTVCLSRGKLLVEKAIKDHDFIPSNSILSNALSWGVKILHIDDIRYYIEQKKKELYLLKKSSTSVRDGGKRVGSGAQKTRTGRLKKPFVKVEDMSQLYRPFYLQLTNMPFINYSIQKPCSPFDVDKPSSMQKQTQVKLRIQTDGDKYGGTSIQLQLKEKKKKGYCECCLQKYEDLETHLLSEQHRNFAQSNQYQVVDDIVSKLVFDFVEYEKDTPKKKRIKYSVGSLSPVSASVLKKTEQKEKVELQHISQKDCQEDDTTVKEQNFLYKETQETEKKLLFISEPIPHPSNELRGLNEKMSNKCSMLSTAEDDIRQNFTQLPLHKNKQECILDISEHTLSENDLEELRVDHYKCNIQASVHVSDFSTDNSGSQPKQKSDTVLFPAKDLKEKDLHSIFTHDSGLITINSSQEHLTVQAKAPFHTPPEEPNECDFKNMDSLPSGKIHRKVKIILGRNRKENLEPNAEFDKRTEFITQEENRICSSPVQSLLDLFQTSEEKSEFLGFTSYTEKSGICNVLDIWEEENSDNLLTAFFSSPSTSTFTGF

SMILES	IC50 [nM]
Cc1ncsc1-c1nc(C2CCN(C(=O)C3CC3(F)F)CC2)c(Cl)c(=O)[nH]1 (stereo not shown) [Compound 19, 5-chloro-4-[1-(2,2-difluorocyclopropanecarbonyl)-4-piperidyl]-2-(4-methylthiazol-5-yl)-1H-pyrimidin-6-one]	40.7
Cn1nccc1-c1nc(C2CCOCC2)c(Cl)c(=O)[nH]1 [Compound 10, 5-chloro-2-(2-methylpyrazol-3-yl)-4-tetrahydropyran-4-yl-1H-pyrimidin-6-one]	93.3
O=c1[nH]c(-c2cncs2)nc(C2CCOCC2)c1Cl [Compound 9, 5-chloro-4-tetrahydropyran-4-yl-2-thiazol-5-yl-1H-pyrimidin-6-one]	562
Cc1ncsc1-c1nc(C2CCOCC2)c(I)c(=O)[nH]1 [Compound 7, 5-Iodo-2-(4-methylthiazol-5-yl)-4-tetrahydropyran-4-yl-1H-pyrimidin-6-one]	245
Cc1ncsc1-c1nc(C2CCOCC2)c(Br)c(=O)[nH]1 [Compound 3, 5-bromo-2-(4-methylthiazol-5-yl)-4-tetrahydropyran-4-yl-1H-pyrimidin-6-one]	57.5
Cc1ncsc1-c1nc(C2CCN(C(=O)OC(C)(C)C)CC2)c(Cl)c(=O)[nH]1 [Compound 1, tert-butyl 4-[5-chloro-2-(4-methylthiazol-5-yl)-6-oxo-1H-pyrimidin-4-yl]piperidine-1-carboxylate]	229
Cc1ncsc1-c1nc(C2CCN(CC(C)C)CC2)c(Cl)c(=O)[nH]1 [Compound 27, 5-chloro-4-(1-isobutyl-4-piperidyl)-2-(4-methylthiazol-5-yl)-1H-pyrimidin-6-one]	56.2
Cc1ncsc1-c1nc(N2CCCNC(=O)C2)c(Cl)c(=O)[nH]1 [Compound 34, 4-[5-chloro-2-(4-methylthiazol-5-yl)-6-oxo-1H-pyrimidin-4-yl]-1,4-diazepan-2-one]	158
Cc1nc(O)sc1-c1nc(C2CCOCC2)c(Cl)c(=O)[nH]1 [Compound 5, 5-chloro-2-(2-hydroxy-4-methyl-thiazol-5-yl)-4-tetrahydropyran-4-yl-1H-pyrimidin-6-one]	126
Cc1nnsc1-c1nc(C2CCOCC2)c(Cl)c(=O)[nH]1 [Compound 11, 5-chloro-2-(4-methylthiadiazol-5-yl)-4-tetrahydropyran-4-yl-1H-pyrimidin-6-one]	692
Cc1ncsc1-c1nc(C2CCOCC2)c(C#N)c(=O)[nH]1 [Compound 18, 2-(4-methylthiazol-5-yl)-6-oxo-4-tetrahydropyran-4-yl-1H-pyrimidine-5-carbonitrile]	60.3

Other lines, results leading:

IC50 [nM]	SMILES
1.66	Cc1ncsc1-c1nc(C2CCN(C(=O)c3ccnnc3)CC2)c(Cl)c(=O)[nH]1 [Compound 26, 5-chloro-2-(4-methylthiazol-5-yl)-4-[1-(pyridazine-4-carbonyl)-4-piperidyl]-1H-pyrimidin-6-one]
3.98	Cc1cc(C(=O)N2CCC(c3nc(-c4scnc4C)[nH]c(=O)c3Cl)CC2)n(C)n1 [Compound 24, 5-chloro-4-[1-(2,5-dimethylpyrazole-3-carbonyl)-4-piperidyl]-2-(4-methylthiazol-5-yl)-1H-pyrimidin-6-one]
3.98	Cc1ncsc1-c1nc(C2CCN(C(=O)c3cscn3)CC2)c(Cl)c(=O)[nH]1 [Compound 21, 5-chloro-2-(4-methylthiazol-5-yl)-4-[1-(thiazole-4-carbonyl)-4-piperidyl]-1H-pyrimidin-6-one]
4.47	Cc1ncsc1C(=O)N1CCC(c2nc(-c3scnc3C)[nH]c(=O)c2Cl)CC1 [Compound 20, 5-chloro-4-[1-(4-methylthiazole-5-carbonyl)-4-piperidyl]-2-(4-methylthiazol-5-yl)-1H-pyrimidin-6-one]
4.37	Cc1cc(C(=O)N2CCC(c3nc(-c4scnc4C)[nH]c(=O)c3Cl)CC2)[nH]n1 [Compound 22, 5-chloro-4-[1-(3-methyl-1H-pyrazole-5-carbonyl)-4-piperidyl]-2-(4-methylthiazol-5-yl)-1H-pyrimidin-6-one]
